The results in this text go back to PubChem BioAssay AID1845196 (Molecular Pharmacology Branch, DTP, NCI, 2023).

Each structure is given as a SMILES string. Where “and” joins values, the source holds several entries; their conditions need not be identical. Equal entries are not always repeated.

This experiment relates to 292921-168-R tumor spheroid viability. The experiment can be described thus: Anticancer human tumor 292921-168-R patient-derived pancreatic carcinoma cell line growth inhibition. Conditions: spheroids with HUVEC and MSC; for viability, T/C: stronger effect = lower value. The essentials:
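Complex tumor spheroids combined malignant cells with endothelial cells and mesenchymal stem cells. DNA-damaging drugs and DNA repair inhibitors were tested alone and in combination, at half-log dilutions down from clinical Cmax (top 10 microM if Cmax unknown), 0.25% DMSO final.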

Where [1] appears, read: curve of first compound, second compound 0.003 µM.
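Further: spheroids exposed to compounds for 7 days.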

`CNCc1ccc(-c2cc(-c3nc(-c4ccc(S(=O)(=O)C(C)C)cc4)cnc3N)on2)cc1` + COc1cc2c(cc1O)CCNC21CSC2c3c(OC(C)=O)c(C)c4c(c3C(COC1=O)N1C(O)C3Cc5cc(C)c(OC)c(O)c5C(C21)N3C)OCO4: the half-maximal inhibitory concentration (IC50) is, setting by setting: (curve of first compound, second compound 30 pM) 193 nM; (curve of first compound, second compound 94.9 pM) 147 nM; (curve of first compound, second compound 0.0003 µM) < 9.49 nM; (curve of first compound, second compound 0.000949 µM) < 9.49 nM; under setting [1], < 9.49 nM. Further, the viability, T/C runs as follows: (second compound 30 pM, first compound 0.00949 µM) 96.9%; (second compound 30 pM, first compound 0.03 µM) 104%; (second compound 30 pM, first compound 0.0949 µM) 71.5%; (second compound 30 pM, first compound 0.3 µM) 36.8%; (second compound 30 pM, first compound 0.949 µM) 15.8%; (second compound 30 pM, first compound 3 µM) 13.2%. Moreover, the viability, T/C runs as follows: (second compound 94.9 pM, first compound 0.00949 µM) 100%; (second compound 94.9 pM, first compound 0.03 µM) 96.4%; (second compound 94.9 pM, first compound 0.0949 µM) 69%; (second compound 94.9 pM, first compound 0.3 µM) 19%; (second compound 94.9 pM, first compound 0.949 µM) 13.2%; (second compound 94.9 pM, first compound 3 µM) 8.91%. In addition, the viability, T/C was 45.9% (second compound 0.0003 µM, first compound 0.00949 µM); 50.7% (second compound 0.0003 µM, first compound 0.03 µM); 28.6% (second compound 0.0003 µM, first compound 0.0949 µM); 14.5% (second compound 0.0003 µM, first compound 0.3 µM); 10% (second compound 0.0003 µM, first compound 0.949 µM); 8.68% (second compound 0.0003 µM, first compound 3 µM). In addition, the viability, T/C was 2.7% (second compound 0.000949 µM, first compound 0.00949 µM); 5.05% (second compound 0.000949 µM, first compound 0.03 µM); 4.26% (second compound 0.000949 µM, first compound 0.0949 µM); 4.15% (second compound 0.000949 µM, first compound 0.3 µM); 3.65% (second compound 0.000949 µM, first compound 0.949 µM); 0.18% (second compound 0.000949 µM, first compound 3 µM). The viability, T/C reads like this: (second compound 0.003 µM, first compound 0.00949 µM) 0.18%; (second compound 0.003 µM, first compound 0.03 µM) 0.17%; (second compound 0.003 µM, first compound 0.0949 µM) 0.15%; (second compound 0.003 µM, first compound 0.3 µM) 0.2%; (second compound 0.003 µM, first compound 0.949 µM) 0.24%; (second compound 0.003 µM, first compound 3 µM) 0.16%.
Consider `Cc1sc2c(c1C)C(c1ccc(Cl)cc1)=NC(CC(=O)Nc1ccc(O)cc1)c1nnc(C)n1-2` (centres undefined), for which the viability, T/C was 119% (2×) and 110% (compound 0.00949 µM); 124% and 90% and 120% (compound 0.03 µM); 132% and 104% and 113% (compound 0.0949 µM); 114% and 102% and 124% (compound 0.3 µM); 92.9% and 71.4% and 81.5% (compound 0.949 µM); 49.3% and 34.5% and 57.9% (compound 3 µM). Moreover, under “curve of compound”, the IC50 is 2950 nM and 1850 nM and > 3000 nM.
Take `Cc1cc(C)c(CNC(=O)c2cc(-c3ccc(CN4CCOCC4)cc3)cc3c2cnn3C2CCCC2)c(=O)[nH]1` + CC[C@@]1(O)C(=O)OCc2c1cc1n(c2=O)Cc2cc3c(CN(C)C)c(O)ccc3nc2-1: the IC50 by setting is: under setting [1], > 10000 nM; (curve of first compound, second compound 0.00949 µM) > 10000 nM; (curve of first compound, second compound 0.03 µM) < 31.6 nM; (curve of first compound, second compound 0.0949 µM) < 31.6 nM; (curve of first compound, second compound 0.3 µM) < 31.6 nM. The viability, T/C is, setting by setting: (second compound 0.003 µM, first compound 0.0316 µM) 87.6%; (second compound 0.003 µM, first compound 0.1 µM) 78.4%; (second compound 0.003 µM, first compound 0.316 µM) 84.7%; (second compound 0.003 µM, first compound 1 µM) 82.2%; (second compound 0.003 µM, first compound 3.16 µM) 85.9%; (second compound 0.003 µM, first compound 10 µM) 50.9%. Also, the viability, T/C runs as follows: (second compound 0.00949 µM, first compound 0.0316 µM) 76.9%; (second compound 0.00949 µM, first compound 0.1 µM) 77.2%; (second compound 0.00949 µM, first compound 0.316 µM) 76%; (second compound 0.00949 µM, first compound 1 µM) 71.7%; (second compound 0.00949 µM, first compound 3.16 µM) 64.8%; (second compound 0.00949 µM, first compound 10 µM) 53%. In addition, the viability, T/C is, setting by setting: (second compound 0.03 µM, first compound 0.0316 µM) 32.5%; (second compound 0.03 µM, first compound 0.1 µM) 37.8%; (second compound 0.03 µM, first compound 0.316 µM) 34.9%; (second compound 0.03 µM, first compound 1 µM) 35.5%; (second compound 0.03 µM, first compound 3.16 µM) 28.6%; (second compound 0.03 µM, first compound 10 µM) 27.8%. For the same compound, the viability, T/C by setting is: (second compound 0.0949 µM, first compound 0.0316 µM) 14.8%; (second compound 0.0949 µM, first compound 0.1 µM) 14.2%; (second compound 0.0949 µM, first compound 0.316 µM) 14.2%; (second compound 0.0949 µM, first compound 1 µM) 13.4%; (second compound 0.0949 µM, first compound 3.16 µM) 14.1%; (second compound 0.0949 µM, first compound 10 µM) 13.1%. For the same compound, the viability, T/C by setting is: (second compound 0.3 µM, first compound 0.0316 µM) 3.97%; (second compound 0.3 µM, first compound 0.1 µM) 4.78%; (second compound 0.3 µM, first compound 0.316 µM) 4.87%; (second compound 0.3 µM, first compound 1 µM) 5.2%; (second compound 0.3 µM, first compound 3.16 µM) 5.56%; (second compound 0.3 µM, first compound 10 µM) 6.73%.
Consider `COc1ccc([C@@H](O)c2cc(-c3ncnc4cc(N5CCOCC5)ccc34)c(F)cc2Cl)nn1`, for which the viability, T/C was 103% and 105% and 96.1% (compound 0.0316 µM); 99.4% and 97.3% and 101% (compound 0.1 µM); 91.3% and 87.4% and 87.8% (compound 0.316 µM); 57.4% and 56.3% and 64.4% (compound 1 µM); 37% and 34.3% and 35.8% (compound 3.16 µM); 20.6% and 19% and 21% (compound 10 µM). Moreover, for the setting “curve of compound”, the IC50 was 1570 nM and 1450 nM and 1780 nM.

As a reminder, the IC50 is the concentration at which inhibition is half-maximal. As a reminder, the viability, T/C is the ratio of treated to control.
